Tested on: Streptococcus pyogenes (ATCC# 97-03 14289)
Test: Anti-microbial screen (percent inhibition of growth, OD 570 nm)
Assay type: cell-based
Settings: Spy4H: Streptococcus pyogenes, read at 4 hours, OD 570 nm; Conc 0.1776 mg ml
Method: Streptococcus pyogenes (ATCC# 97-03 14289) was grown in Todd Hewitt Broth (THB) (Difco Laboratories #0492-17-6) overnight until reaching an optical density of (OD=0.636@570 nm) by reading 0.1 ml in a 96 well microtiter plate in a Molecular Devices Thermomax. This preparation was kept frozen as stocks in 30% v/v glycerol in 1.5 ml aliquots at […] until use. Prior to experiments, 6 ml aliquots were thawed and diluted into 50 ml 2×THB. 60 ul of this dilution was added to 92 wells of microtiter plate. To three wells THB (200 ul) was added to serve as a blank and a sterility control. Test compounds in DMSO and appropriate concentrations of DMSO were added to Growth/Solvent Controls at 0 time. Plates were read at 0 time at 570 nm in the Molecular Devices plate reader to obtain compounds correction factors for insoluble or colored compounds. Plates were read again at 4 hours.
Percent inhibition is calculated with the following formula:
Color correct=O.D. 0 hr - Blank 0 hr)-(Solvent Control Ohr - Blank 0 hr) [formula]

SMILES	inhibition of growth at 177.6 µg/mL [%]
COc1cccc(S/C(=N/c2ccc(Cl)c(C(F)(F)F)c2)N(Cc2ccc(O)cc2)Cc2ccc(Cl)c(Cl)c2)c1 [Cmpd 73]	85.8
Cc1ccc(CN(Cc2cccc(O)c2)/C(=N/c2cc(Cl)cc(Cl)c2)Sc2ccc(C)cc2)cc1 [Cmpd 413]	57.6
O=[N+]([O-])c1ccccc1/N=C(\Sc1ccccc1)N(Cc1cccc(O)c1)Cc1ccc(Cl)c(Cl)c1 [Cmpd 866]	60.8
Cc1ccc(CN(Cc2ccc(O)cc2)/C(=N/c2ccccc2[N+](=O)[O-])Sc2ccc(C)cc2C)cc1 [Cmpd 26]	58.1
Cc1ccc(CN(Cc2ccc(O)cc2)/C(=N\c2ccc(Cl)c([N+](=O)[O-])c2)Sc2ccc(C)cc2C)cc1 [Cmpd 23]	61.3
COCCN(Cc1ccc(O)cc1)/C(=N\c1ccc(Cl)c([N+](=O)[O-])c1)Sc1ccc(C)cc1C [Cmpd 1063]	73.8
COc1cccc(S/C(=N\c2ccc(F)c(Cl)c2)N(CCc2ccc(F)cc2)Cc2cccc(O)c2)c1 [Cmpd 934]	94
COc1ccc(C)cc1/N=C(\Sc1ccc(C)cc1)N(Cc1ccc(O)cc1)Cc1cccc(Cl)c1 [Cmpd 189]	61.8
Oc1cccc(CN(Cc2ccc(Cl)c(Cl)c2)/C(=N/c2cc(Cl)cc(Cl)c2)Sc2ccccc2)c1 [Cmpd 853]	60.2
COc1cccc(S/C(=N/c2ccc(Cl)c([N+](=O)[O-])c2)N(Cc2ccc(C)cc2)Cc2ccc(O)cc2)c1 [Cmpd 143]	93.6
COc1cccc(CN(Cc2ccc(O)cc2)/C(=N/c2cc(Cl)cc(Cl)c2)Sc2cccc(OC)c2)c1 [Cmpd 773]	68.4
Cc1ccc(CN(Cc2cccc(O)c2)/C(=N\c2ccc(C(F)(F)F)cc2)Sc2ccc(C)cc2C)cc1 [Cmpd 207]	95.9
COCCN(Cc1cccc(O)c1)/C(=N\c1ccc(C)cc1)Sc1ccc(C)cc1C [Cmpd 90]	81.3
Cc1cccc(S/C(=N\c2ccc(F)c(Cl)c2)N(CCc2ccc(Cl)cc2)Cc2cccc(O)c2)c1 [Cmpd 694]	62.5
COc1cccc(S/C(=N\c2ccc(C(F)(F)F)cc2)N(Cc2ccc(O)cc2)Cc2ccc(Cl)c(Cl)c2)c1 [Cmpd 47]	85.8
CCc1cccc(/N=C(/Sc2ccc(C)cc2C)N(CCOC)Cc2cccc(O)c2)c1 [Cmpd 98]	69.9
Cc1ccc(S/C(=N\c2ccc(Cl)c(C(F)(F)F)c2)N(Cc2ccc(O)cc2)Cc2ccc(Cl)c(Cl)c2)cc1 [Cmpd 1233]	61.5
CCCCN(Cc1cccc(O)c1)/C(=N\c1ccc(F)c(Cl)c1)Sc1ccccc1 [Cmpd 734]	89.6
COc1cccc(CN(Cc2ccc(O)cc2)/C(=N/c2ccc(Cl)c([N+](=O)[O-])c2)Sc2cccc(C)c2)c1 [Cmpd 1103]	59.5

SMILES	inhibition of growth at 177.6 µg/mL [%]
Cc1ccc(CN(Cc2cccc(O)c2)/C(=N/c2ccccc2[N+](=O)[O-])Sc2ccc(C)cc2)cc1 [Cmpd 426]	67.4
COc1ccc(C)cc1/N=C(\Sc1ccccc1)N(Cc1cccc(O)c1)Cc1ccc(Cl)c(Cl)c1 [Cmpd 869]	62.2
Cc1cccc(S/C(=N/c2ccc(C(F)(F)F)cc2)N(Cc2ccccc2)Cc2cccc(O)c2)c1 [Cmpd 1127]	88.6
Cc1cccc(S/C(=N/c2ccc(Cl)c(C(F)(F)F)c2)N(Cc2ccccc2)Cc2cccc(O)c2)c1 [Cmpd 1153]	62.7
COCCN(Cc1cccc(O)c1)/C(=N\c1cccc(Cl)c1)Sc1ccc(C)cc1C [Cmpd 92]	59.8
CCCCN(Cc1cccc(O)c1)/C(=N\c1ccc(Cl)c([N+](=O)[O-])c1)Sc1ccccc1 [Cmpd 743]	64.2
COc1cccc(S/C(=N\Cc2cccc(C)c2)N(CCc2ccc(F)cc2)Cc2cccc(O)c2)c1 [Cmpd 922]	84.3
Cc1ccc(CN(Cc2ccc(O)cc2)/C(=N/c2ccc(Cl)c(Cl)c2)Sc2ccc(C)cc2C)cc1 [Cmpd 8]	57.5
Cc1cccc(S/C(=N\c2cccc(C(F)(F)F)c2)N(CCc2ccc(Cl)cc2)Cc2cccc(O)c2)c1 [Cmpd 686]	68.4
Cc1cccc(S/C(=N\c2ccccc2[N+](=O)[O-])N(CCc2ccc(Cl)cc2)Cc2cccc(O)c2)c1 [Cmpd 706]	63.6
COc1cccc(S/C(=N\Cc2ccc(F)cc2)N(CCc2ccc(Cl)cc2)Cc2ccc(O)cc2)c1 [Cmpd 364]	66.9
COc1cccc(CCN(Cc2ccc(O)cc2)/C(=N/c2ccc(Cl)c([N+](=O)[O-])c2)Sc2ccccc2)c1 [Cmpd 903]	95.7
COc1ccc(C)cc1/N=C(\Sc1cccc(C)c1)N(Cc1ccccc1)Cc1cccc(O)c1 [Cmpd 1149]	76
COCCN(Cc1cccc(O)c1)/C(=N\c1ccc(Cl)c([N+](=O)[O-])c1)Sc1ccc(C)cc1C [Cmpd 103]	58.9
COc1cccc(S/C(=N\c2cc(Cl)cc(Cl)c2)N(CCc2ccc(Cl)cc2)Cc2ccc(O)cc2)c1 [Cmpd 373]	75
Cc1ccc(S/C(=N\c2ccc(F)c(F)c2)N(Cc2cccc(O)c2)CC2CCCCC2)c(C)c1 [Cmpd 1276]	57.3
Cc1ccc(CN(Cc2cccc(O)c2)/C(=N/c2ccc(C(F)(F)F)cc2)Sc2cccc(C)c2)cc1 [Cmpd 447]	99.5
COCCN(Cc1ccc(O)cc1)/C(=N\c1ccc(Cl)c(C(F)(F)F)c1)Sc1ccc(C)cc1 [Cmpd 673]	72.8
COc1cccc(S/C(=N/c2ccc(C(F)(F)F)cc2)N(Cc2ccc(C)cc2)Cc2ccc(O)cc2)c1 [Cmpd 127]	61.5

Same assay, conditions: Streptococcus pyogenes; Assay Spy4H; Conc 0.1776 mg ml; plates read at 570 nm at 0 time and at 4 hours

SMILES	inhibition of growth at 177.6 µg/mL [%]
Cc1ccc(CN(Cc2cccc(O)c2)/C(=N/c2ccc(F)c(Cl)c2)Sc2ccc(C)cc2)cc1 [Cmpd 414]	49.1
Cc1cccc(S/C(=N\c2ccc(Cl)c(Cl)c2)N(Cc2ccccc2)Cc2cccc(O)c2)c1 [Cmpd 1128]	51.5
COc1cccc(S/C(=N\c2ccc(F)c(F)c2)N(CCc2ccc(Cl)cc2)Cc2ccc(O)cc2)c1 [Cmpd 396]	54.2
COc1cccc(/N=C(\Sc2cccc(OC)c2)N(CCc2ccc(F)cc2)Cc2cccc(O)c2)c1 [Cmpd 936]	56.3
COCCN(Cc1ccc(O)cc1)/C(=N\c1ccc(Cl)c([N+](=O)[O-])c1)Sc1ccc(C)cc1 [Cmpd 663]	54.8
Cc1cccc(S/C(=N\c2ccc(Cl)c(C(F)(F)F)c2)N(CCc2ccc(Cl)cc2)Cc2ccc(O)cc2)c1 [Cmpd 1193]	53.6
Cc1ccc(S/C(=N/c2ccc(Cl)c(C(F)(F)F)c2)N(Cc2ccccc2)Cc2ccc(O)cc2)c(C)c1 [Cmpd 513]	52.9
Cc1ccc(S/C(=N/c2ccc(Cl)c(C(F)(F)F)c2)N(CCc2ccc(Cl)cc2)Cc2cccc(O)c2)c(C)c1 [Cmpd 313]	50.4
COc1cccc(S/C(=N\Cc2cccc(C)c2)N(CCc2ccc(Cl)cc2)Cc2ccc(O)cc2)c1 [Cmpd 362]	50.9
COc1cccc(CN(Cc2ccc(O)cc2)/C(=N/c2ccc(Cl)c([N+](=O)[O-])c2)Sc2cccc(OC)c2)c1 [Cmpd 783]	54.5
COc1cccc(CN(Cc2ccc(O)cc2)/C(=N\c2ccc(Cl)c(C(F)(F)F)c2)Sc2cccc(OC)c2)c1 [Cmpd 793]	52.4
CCc1cccc(/N=C(/Sc2ccc(C)cc2)N(CCOC)Cc2ccc(O)cc2)c1 [Cmpd 658]	53
Cc1ccc(S/C(=N\c2ccc(F)cc2F)N(Cc2cccc(O)c2)CC2CCCCC2)c(C)c1 [Cmpd 1245]	53.8
COc1cccc(S/C(=N\c2cccc(Cl)c2)N(Cc2ccc(O)cc2)Cc2ccc(Cl)c(Cl)c2)c1 [Cmpd 52]	52.6
Cc1ccc(S/C(=N/c2ccc(Cl)c([N+](=O)[O-])c2)N(Cc2ccccc2)Cc2ccc(O)cc2)c(C)c1 [Cmpd 503]	57.3
Cc1ccc(CN(Cc2cccc(O)c2)/C(=N\c2ccc(Cl)c(C(F)(F)F)c2)Sc2ccc(C)cc2)cc1 [Cmpd 433]	51.7
COc1cccc(CN(Cc2cccc(O)c2)/C(=N/c2ccc(C(F)(F)F)cc2)Sc2cccc(OC)c2)c1 [Cmpd 327]	56.7
Cc1ccc(S/C(=N/c2ccc(Cl)c([N+](=O)[O-])c2)N(Cc2ccc(O)cc2)CC(C)C)cc1 [Cmpd 263]	53.8
Oc1cccc(CN(Cc2ccc(Cl)c(Cl)c2)/C(=N/c2cccc(C(F)(F)F)c2)Sc2ccccc2)c1 [Cmpd 846]	49.3
Cc1cccc(S/C(=N/c2cccc(C(F)(F)F)c2)N(Cc2cccc(O)c2)CC(C)C)c1 [Cmpd 526]	50
COCCN(Cc1ccc(O)cc1)/C(=N\c1ccccc1F)Sc1ccc(C)cc1C [Cmpd 1067]	53
COCCN(Cc1cccc(O)c1)/C(=N\c1cc(C)ccc1OC)Sc1ccc(C)cc1C [Cmpd 109]	56.3
COCCN(Cc1ccc(O)cc1)/C(=N\c1ccc(Cl)c(C(F)(F)F)c1)Sc1ccc(C)cc1C [Cmpd 1073]	54.4
Cc1ccc(CN(Cc2ccc(O)cc2)/C(=N/c2ccc(F)c(F)c2)Sc2ccc(C)cc2C)cc1 [Cmpd 36]	56.8
Cc1cccc(S/C(=N/c2ccc(OC(F)(F)F)cc2)N(Cc2ccccc2)Cc2cccc(O)c2)c1 [Cmpd 1155]	49.4

Source: patent US20040010036A1, “N,N, -Substituted s-Aryl-Isothioureas, N,N,N, -Substituted s-Aryl-Isothioureas and combinatorial libraries thereof” (priority 2002, published 2004)
